Laboratory results from patent publication US20150290171A1, “METHODS FOR THE TREATMENT OF BONE LOSS” (CELGENE CORPORATION, priority 2012, published 2015).
Read-outs that look alike come from different tables or passages of the source.

Assays:
sRANKL protein [1] = assay: OBL culture, sRANKL protein in supernatant (ELISA); format: cell-based, human; conditions: 7 days; for effect on sRANKL protein levels: OBL supernatants; for reduction of sRANKL protein levels: OBL
Procedure: (§1) Normal human OBL (nHOST, Lonza) were grown using OBL basal medium containing 10% fetal bovine serum, ascorbic acid, and gentamicin/amphotericin-B (Lonza). Cells were grown to a density of 5×10^5 cells/mL. Compounds were added and the final concentration of dimethyl sulfoxide (DMSO) was 0.25%. Plates were incubated at 5% CO2, 37° C. for 7 days, changing media every 3 days and adding fresh compound. The supernatant was collected for analysis of RANKL (USCNK Life Science Inc), OPG (R&D Systems), and SOST (R&D Systems) by enzyme-linked immunosorbent assay (ELISA). Cells were stained for ALP.

sRANKL/OPG protein ratio = assay: OBL culture, sRANKL/OPG protein ratio; format: cell-based, human
Procedure: as §1

[2] = system: Phosphodiesterase 4 enzyme; assay: Inhibition of PDE4 (enzyme purified from U937 cells, [3H]-cAMP); format: biochemical; conditions: PDE4 from U937 human monocytic cells, 1 μM cAMP, 45 min at 30° C.
Procedure: Phosphodiesterase 4 enzyme was purified from U937 human monocytic cells by gel filtration chromatography, and phosphodiesterase reactions were carried out as previously described. See, e.g., Muller et al., Bioorg. Med. Chem. Lett., 1998, 8(19): 2669-2674. Briefly, reactions were carried out in 96-well deep-well plates in 50 mM Tris HCl pH 7.5, 5 mM MgCl2, 1 μM cyclic adenosine monophosphate (cAMP), plus 10 nM [^3H]-cAMP for 45 min at 30° C. The reactions were terminated by boiling, treated with 1 mg/ml snake venom, and separated using AG-1X8 ion exchange resin (BioRad). Reactions consumed less than 15% of available substrate.

[3] = system: Human bone marrow mononuclear cells differentiated into OCL; assay: OCL differentiation (osteoclastogenesis), number of TRAP-5+ cells; format: cell-based; conditions: OCL cultures, 7 days
sRANKL protein [4] = assay: sRANKL protein levels in OCL cultures; format: cell-based, human
BMP-6 gene expression = BMP-6 gene expression in OCL cultures (RT-PCR); format: cell-based, human; conditions: FIG. 5
[5] = system: RAW 264.7 mouse macrophages; assay: OCL pit formation; format: cell-based; conditions: RAW 264.7 cells with RANKL 50 ng/mL, FIG. 6 and 7
OPG protein = assay: OBL culture, OPG protein in supernatant (ELISA); format: cell-based, human; conditions: 0.1 μM
Procedure: as §1

sRANKL = assay: OCY differentiation, sRANKL production (ELISA); format: cell-based, human
Procedure: (§2) OBL were differentiated into OCY using hydroxyapatite/tricalcium phosphate biphasic calcium phosphate ceramic particles (Graftys BCP), which were placed into polycarbonate filter well inserts, and the cell culture media was changed every 3 days for a total of 28 days. Gene expression was measured by quantitative RT-PCR for the following: RANK, RANKL, SOST, OPG, mothers against decapentaplegic homolog 1 (SMAD1), collagen 9A2 (COL9A2), vascular endothelial growth factor C (VEGFC), and fibroblast growth factor receptor 1 (FGFR1). Protein production was measured by ELISA.

SOST protein = assay: OCY differentiation, SOST protein levels (ELISA); format: cell-based, human
Procedure: as §2

RANK gene expression = conditions: OCL cultures
Procedure: Human bone marrow mononuclear cells were differentiated into OCL using 10 nM dexamethasone and 10 nM vitamin D for 7 days. APR (0.1-10 μM) was added with fresh medium on days 0 and 3. […] OCL were lysed and RNA was isolated and converted to cDNA. Reverse transcription polymerase chain reaction (RT-PCR) was performed to measure gene expression of RANK and bone morphogenetic protein 6 (BMP-6).

## O=C(O)c1cc(/N=N/c2ccc(S(=O)(=O)Nc3ccccn3)cc2)ccc1O [sulfasalazine, reference compound]
sRANKL protein [1]; 30 μM
  effect on sRANKL protein levels: no significant effect
sRANKL/OPG protein ratio; 30 μM
  effect on sRANKL/OPG ratio: no effect

## CCOc1cc([C@@H](CS(C)(=O)=O)N2C(=O)c3cccc(NC(C)=O)c3C2=O)ccc1OC [(+)-2-[1-(3-ethoxy-4-methoxyphenyl)-2-methanesulfonylethyl]-4-acetylaminoisoindolin-1,3-dione]
[2]
  IC50: 73.5 nM
[3]; 0.1 μM
  reduction of number of TRAP-5+ cells: 21%
[3]; 1 μM
  reduction of number of TRAP-5+ cells: 49%
[3]; 10 μM
  reduction of number of TRAP-5+ cells: 73%
sRANKL protein [4]; 0.1 μM
  reduction of sRANKL protein levels: 25%
sRANKL protein [4]; 1 μM
  reduction of sRANKL protein levels: 21%
sRANKL protein [4]; 10 μM
  reduction of sRANKL protein levels: 38%
BMP-6 gene expression
  effect on BMP-6 gene expression: increase of BMP-6 gene expression
[5]
  effect on OCL pit formation: inhibition of OCL pit formation
sRANKL protein [1]; 1 μM
  reduction of sRANKL protein levels: 25%
sRANKL protein [1]; 10 μM
  reduction of sRANKL protein levels: 25%
OPG protein
  increase of OPG protein levels: 42%
sRANKL/OPG protein ratio; 0.1 μM
  decrease of sRANKL/OPG protein ratio: 39%
sRANKL/OPG protein ratio; 1 μM
  decrease of sRANKL/OPG protein ratio: 32%
sRANKL/OPG protein ratio; 10 μM
  decrease of sRANKL/OPG protein ratio: 40%
sRANKL; 0.1 μM
  reduction of sRANKL production: 18%
sRANKL; 1 μM
  reduction of sRANKL production: 14%
sRANKL; 10 μM
  reduction of sRANKL production: 17%
SOST protein; 0.1 μM
  reduction of SOST protein levels: 16%
SOST protein; 1 μM
  reduction of SOST protein levels: 20%
SOST protein; 10 μM
  reduction of SOST protein levels: 14%
RANK gene expression; 1 μM
  inhibition of RANK gene expression: 30%
RANK gene expression; 10 μM
  inhibition of RANK gene expression: 25%

## COc1ccc(C2CNC(=O)C2)cc1OC1CCCC1 (stereo not drawn) [Rolipram, rolipram, reference compound]
sRANKL protein [1]; 10 μM
  effect on sRANKL protein levels: no significant effect
sRANKL/OPG protein ratio; 10 μM
  effect on sRANKL/OPG ratio: no effect

## NCCCC(O)(P(=O)(O)O)P(=O)(O)O [Alendronate, alendronate, reference compound]
sRANKL protein [1]; 10 μM
  effect on sRANKL protein levels: no significant effect
sRANKL/OPG protein ratio; 10 μM
  effect on sRANKL/OPG ratio: no effect
RANK gene expression; 10 μM
  inhibition of RANK gene expression: 77%
